Data on 18 molecules can be found in ChEMBL document CHEMBL1134498, “Experimental and computational screening models for the prediction of intestinal drug absorption” (J Med Chem, 2001).

Molecules are shown by their SMILES. Where a SMILES comes first, the peptide text is derived from it.

Series [1] is described as follows: Cellular permeability (Pc) (Caco-2 cell monolayer). As to conditions: human, read-out: Pc. It counts as ADME. A general note: Caco-2 monolayers are a common model of the intestinal barrier.
A short description of series [2]: Apparent permeability coefficient (Papp) (Caco-2 cell monolayer). Format: ADME, cell-based. As to conditions: human.
The species entered for the next series is Homo sapiens. The series can be described thus: Ratio of [(apical to basal)/(basal to apical)] (Caco-2 cell monolayer). Format: ADME.

Take `CCCc1nn(C)c2c(=O)[nH]c(-c3cc(S(=O)(=O)N4CCN(C)CC4)ccc3OCC)nc12`: the figures for the Papp in series [1] and in series [2] were 87 ×10⁻⁶ cm/s and 48 ×10⁻⁶ cm/s, respectively. The Ratio in the series listed under Homo sapiens turned out to be 0.83.

As for `C[C@H](NC(=O)[C@@H](N)Cc1ccc(O)cc1)C(=O)N[C@@H](Cc1ccccc1)C(=O)N[C@@H](Cc1ccccc1)C(N)=O` (H-YAFF-NH2), the Papp in series [1] worked out at 0.022 ×10⁻⁶ cm/s; in series [2], 0.04 ×10⁻⁶ cm/s.

On to `NC(=O)[C@H](Cc1ccccc1)NC(=O)[C@H](Cc1ccccc1)NC(=O)[C@H](CCCN=C(N)N)NC(=O)[C@@H](N)Cc1ccc(O)cc1` (H-YRFF-NH2), for which the Papp amounted to 0.023 ×10⁻⁶ cm/s in series [1] and 0.037 ×10⁻⁶ cm/s in series [2]. For the same molecule, the Ratio in the series listed under Homo sapiens is given as 0.41.

`C=CCc1ccccc1OCC(O)CNC(C)C` (stereo unspecified) [ALPRENOLOL]: the Papp in series [2] stood at 88 ×10⁻⁶ cm/s. In addition, the Ratio in the series listed under Homo sapiens is given as ~ 1.

Regarding `N=C(N)NC(=O)c1nc(Cl)c(N)nc1N` [AMILORIDE], the Papp amounted to 0.78 ×10⁻⁶ cm/s in series [1] and 0.56 ×10⁻⁶ cm/s in series [2].

With `Cc1cc(=O)n(-c2ccccc2)n1C` [ANTIPYRINE], the Papp in series [1] was 215 ×10⁻⁶ cm/s; in series [2], 77 ×10⁻⁶ cm/s. Moreover, the Ratio in the series filed under Homo sapiens is recorded as 1.1.

As to `CN/C(=N/CCSCc1nc[nH]c1C)NC#N` [CIMETIDINE], the Papp in series [1] was 1.2 ×10⁻⁶ cm/s; in series [2], 1.23 ×10⁻⁶ cm/s. Also, in the series filed under Homo sapiens, the Ratio turned out to be 1.8.

`O=C(O)P(=O)(O)O` [FOSCARNET]: the Papp in series [1] is 0.05 ×10⁻⁶ cm/s; in series [2], 0.045 ×10⁻⁶ cm/s. Further, the Ratio in the series filed under Homo sapiens worked out at 0.65.

On to `OC[C@H]1O[C@@H](O[C@@H]2[C@@H](CO)O[C@](O)(CO)[C@H]2O)[C@H](O)[C@@H](O)[C@H]1O` [LACTULOSE], for which the Papp in series [1] is 0.27 ×10⁻⁶ cm/s; in series [2], 0.3 ×10⁻⁶ cm/s. In addition, the Ratio in the series listed under Homo sapiens amounted to 1.4.

As for `OC[C@@H](O)[C@@H](O)[C@H](O)[C@H](O)CO` [MANNITOL], the Papp in series [1] worked out at 0.19 ×10⁻⁶ cm/s; in series [2], 0.11 ×10⁻⁶ cm/s. Also, the Ratio in the series filed under Homo sapiens came out at 0.89.

Regarding `Cc1ccccc1N1C(=O)c2cc(S(N)(=O)=O)c(Cl)cc2NC1C` (stereo unspecified) [METOLAZONE], the Papp in series [1] turned out to be 6.1 ×10⁻⁶ cm/s; in series [2], 6.2 ×10⁻⁶ cm/s. Moreover, the Ratio in the series filed under Homo sapiens amounted to 0.64.

Consider `COCCc1ccc(OCC(O)CNC(C)C)cc1` (stereo unspecified) [METOPROLOL], for which the Papp in series [2] stood at 64 ×10⁻⁶ cm/s. Further, in the series filed under Homo sapiens, the Ratio came to 1.

For `C=CCOc1ccccc1OCC(O)CNC(C)C` (stereo unspecified) [OXPRENOLOL], the Papp in series [2] was 61 ×10⁻⁶ cm/s. In addition, in the series filed under Homo sapiens, the Ratio was ~ 1.

Turning to `CC(C)NCC(O)COc1cccc2[nH]ccc12` (stereo unspecified) [PINDOLOL], in series [2], the Papp was 36 ×10⁻⁶ cm/s. The Ratio in the series listed under Homo sapiens is reported as ~ 1.

In the case of `CC(=O)Nc1ccc(OCC(O)CNC(C)C)cc1` (stereo unspecified) [PRACTOLOL], in series [2], the Papp amounted to 1.8 ×10⁻⁶ cm/s. For the same molecule, in the series listed under Homo sapiens, the Ratio is listed as ~ 1.

Consider `OC[C@H]1O[C@H](OC[C@H]2O[C@H](O[C@]3(CO)O[C@H](CO)[C@@H](O)[C@@H]3O)[C@H](O)[C@@H](O)[C@@H]2O)[C@H](O)[C@@H](O)[C@H]1O` [RAFFINOSE], for which the Papp came to 0.047 ×10⁻⁶ cm/s in series [1] and 0.051 ×10⁻⁶ cm/s in series [2]. Besides, the Ratio in the series listed under Homo sapiens was 1.2.

For `O=C(O)c1cc(/N=N/c2ccc(S(=O)(=O)Nc3ccccn3)cc2)ccc1O` [SULFASALAZINE], the Papp in series [1] and in series [2] was 0.16 ×10⁻⁶ cm/s throughout. For the same molecule, the Ratio in the series listed under Homo sapiens is 0.087.

In the case of `CCN1CCCC1CNC(=O)c1cc(S(N)(=O)=O)ccc1OC` (stereo unspecified) [SULPIRIDE], the Papp in series [1] is 0.39 ×10⁻⁶ cm/s; in series [2], 0.23 ×10⁻⁶ cm/s.
